In the NIST ThermoML archive (doi:10.1021/je0495942):
Where “and” joins values, the source holds several entries; their conditions need not be identical. Equal entries are not always repeated. ± gives the expanded uncertainty stated by the source.

Experiment: activity coefficient (dimensionless); of the first substance listed, at infinite dilution; xn = mol fraction of the nth substance listed
Conditions: 101.33 kPa, Liquid, Chromatography, x1 = 0

Row | activity coefficient (297.85 K) | activity coefficient (298.15 K) | activity coefficient (298.01 K) | activity coefficient (298.03 K) | SMILES | further results
1 |  | 4.14 ± 0.19 |  |  | CC=O [ethanal] + O | activity coefficient (298.13 K): 4.13 [middle of 4 runs]
2 |  | 3.77 ± 0.17 |  |  | CCO [ethanol] + O | 
3 | 129 ± 6 | 148 ± 7 |  |  | CCCC(C)=O [pentan-2-one] + O | 
4 |  |  | 13.4 ± 0.6 | 13.3 ± 0.6 | CCCO [propan-1-ol] + O | activity coefficient (298.04 K): 13.3 ± 0.6; activity coefficient (298.1 K): 13.4 and 13.3

More lines, now with the values behind:

Row | SMILES | activity coefficient (297.85 K) | activity coefficient (298.15 K) | activity coefficient (298.01 K) | activity coefficient (298.03 K) | further results
5 | CC(=O)C(C)=O [2,3-butanedione] + O |  |  |  |  | activity coefficient (298.1 K): 13.3 and 13.2; activity coefficient (298.17 K): 13.2 and 13.1
6 | CCCCC(C)=O [2-hexanone] + O | 319 ± 14 | 265 ± 12 |  |  | 
7 | CSC [2-thiapropane] + O |  |  | 175 and 173 and 171 | 170 and 173 | activity coefficient (298.02 K): 184 and 185; activity coefficient (298.07 K): 178 ± 12
8 | CC(C)=O [acetone] + O |  |  | 7.62 and 7.68 | 7.64 and 7.7 | activity coefficient (298.04 K): 7.68 and 7.74; activity coefficient (298.17 K): 7.7 ± 0.34
9 | CCC(C)=O [butanone] + O | 25.8 ± 1.1 | 26.1 ± 1.2 |  |  | 
